Laboratory results: paper PMC12541891 (MicrobiologyOpen, 2025)
Values after ≈ are worked out from the molar mass of the structure shown.

Legend:
[1] = test system: S. aureus biofilm; assay: Biofilm biomass by crystal violet (CV) assay; format: cell-based, Staphylococcus aureus
Description: (§1) For all bacterial strains considered in the study, biofilm was performed on a 96‐well plate inoculated with 200 µL of a bacterial suspension 1 × 10^6 CFU/mL and incubated 24 h at 37°C. After incubation for 4 h at 37°C, the medium was aspirated, non‐adherent cells were removed, washed with PBS and added with 200 µL of fresh medium. […] Similarly, to perform fungal biofilm, the different Candida species were grown for 24 h at 28°C on a multi‐wells plate, washed twice with sterile PBS, and then resuspended at 37°C in RPMI 1640 plus 10% FBS at 2.5 × 10^7 cells. After incubation for 3 h at 37°C in six‐well polystyrene plates, the medium was aspirated, non‐adherent cells were removed and washed with PBS.
(§2) To quantify bacterial and Candida biofilm biomass, CV, a dye able to color the biofilm matrix, was used. Firstly, after the removal of supernatant and washing with PBS, biofilm was fixed adding 100 µL of 99% methanol for 15 min. Then, methanol was rinsed off and the plates were air‐dried. Subsequently, 100 µL of a 0.1% of CV solution were added to wells and, after 20 min of contact, the plates were washed under running tap water. To dissolve the bounded CV, 150 µL of 33% of glacial acetic acid were added to wells. The absorbance was measured at 590 nm using an automatic microplate reader, Tecan Sunrise (Tecan Group Ltd., Männedorf, Switzerland).

[2] = test system: MRSA biofilm; assay: Biofilm biomass by crystal violet (CV) assay; format: cell-based, Staphylococcus aureus
Description: as §1, §2

[3] = test system: C. albicans biofilm; assay: Biofilm biomass by crystal violet (CV) assay; format: cell-based, Candida albicans
Description: as §1, §2

[4] = test system: C. glabrata biofilm; assay: Biofilm metabolic activity by XTT-reduction assay; format: cell-based, Candida glabrata
Description: as §1
(§3) The biofilm metabolic activity was evaluated by XTT assay, that highpoints the activity through the reduction of the tetrazolium salt to formazan. After the removal of supernatant and washing with PBS, a solution of XTT‐menadione solution were added to wells. The XTT‐menadione was prepared dissolving XTT powder in prewarmed PBS (37°C) at 0.5 g/L. The solution was sterilized through a 0.22 μm pore size filter. Before each assay, the XTT solution was thawed and supplemented with menadione, a 10 mM stock dissolved in acetone to a final concentration 1 μM. Plates were incubated for 3 h at 37°C in the dark and then the absorbance was measured at 492 nm using the microplate reader, Tecan Sunrise.

[5] = test system: C. glabrata DSY562; assay: MIC and MFC by microbroth dilution; format: cell-based, Candida glabrata; settings: Nakaseomyces glabratus, DSY562, C. glabrata
Description: (§4) No substance was added, in one well, for growth control. A bacterial suspension of 1 × 10^8 CFU/mL was inoculated into all wells of the plate and incubated for 24 h at 37°C. […] The dilutions ranged from 4 to 2000 µg/mL for the substances. The inoculum size was about 2.5×10^3 cells/mL. The plates were incubated at 28°C for 24–48 h. The MIC was determined as the lowest substances' concentration where no visible bacterial or fungal growth was observed. […] Each antimicrobial assay was performed in triplicate.

[6] = test system: C. tropicalis biofilm; assay: Biofilm biomass by crystal violet (CV) assay; format: cell-based, Candida tropicalis; settings: substance alone at MIC
Description: as §1, §2

[7] = test system: Extended Spectrum-Beta-Lactamase producing E. coli (ESBL-Ec); assay: MIC and MBC by microbroth dilution; format: cell-based; settings: Escherichia coli, ESBL-Ec
Description: as §4

[8] = test system: Escherichia coli MG1655 (ATCC 700926); assay: MIC and MBC by microbroth dilution; format: cell-based
Description: as §4

[9] = test system: methicillin resistant S. aureus (MRSA); assay: MIC and MBC by microbroth dilution; format: cell-based; settings: Staphylococcus aureus
Description: as §4

[10] = test system: Staphylococcus aureus ATCC 6538; assay: MIC and MBC by microbroth dilution; format: cell-based
Description: as §4

[11] = test system: C. albicans biofilm; assay: Biofilm metabolic activity by XTT-reduction assay; format: cell-based, Candida albicans
Description: as §1, §3

[12] = test system: C. krusei biofilm; assay: Biofilm biomass by crystal violet (CV) assay; format: cell-based, Candida krusei
Description: as §1, §2

[13] = test system: S. aureus biofilm; assay: Biofilm metabolic activity by XTT-reduction assay; format: cell-based, Staphylococcus aureus
Description: as §1, §3

[14] = test system: MRSA biofilm; assay: Biofilm metabolic activity by XTT-reduction assay; format: cell-based, Staphylococcus aureus
Description: as §1, §3

[15] = test system: E. coli biofilm; assay: Biofilm biomass by crystal violet (CV) assay; format: cell-based, Escherichia coli
Description: as §1, §2

[16] = test system: ESBL-Ec biofilm; assay: Biofilm biomass by crystal violet (CV) assay; format: cell-based, Escherichia coli
Description: as §1, §2

[17] = test system: C. tropicalis biofilm; assay: Biofilm metabolic activity by XTT-reduction assay; format: cell-based, Candida tropicalis; settings: biofilm in formation (3 h), substance alone at MIC
Description: as §1, §3

[18] = test system: C. krusei biofilm; assay: Biofilm metabolic activity by XTT-reduction assay; format: cell-based, Candida krusei
Description: as §1, §3

[19] = test system: E. coli biofilm; assay: Biofilm metabolic activity by XTT-reduction assay; format: cell-based, Escherichia coli
Description: as §1, §3

[20] = test system: ESBL-Ec biofilm; assay: Biofilm metabolic activity by XTT-reduction assay; format: cell-based, Escherichia coli
Description: as §1, §3

[21] = test system: C. krusei 44956; assay: MIC and MFC by microbroth dilution; format: cell-based, Candida krusei; settings: Pichia kudriavzevii, 44956, C. krusei
Description: as §4

[22] = test system: C. albicans AIDS 68; assay: MIC and MFC by microbroth dilution; format: cell-based; settings: Candida albicans, AIDS68, C. albicans
Description: as §4

[23] = test system: C. tropicalis 45,615; assay: MIC and MFC by microbroth dilution; format: cell-based; settings: Candida tropicalis, C. tropicalis
Description: as §4

[24] = test system: C. glabrata biofilm; assay: Biofilm biomass by crystal violet (CV) assay; format: cell-based, Candida glabrata
Description: as §1, §2

[25] = biofilm in formation (4 h), substance alone at MIC
[26] = biofilm in formation, sub-MIC concentrations alone or in combination (Table 5), listed as T
[27] = preformed biofilm (24 h), substance alone at MIC
[28] = preformed biofilm, sub-MIC concentrations alone or in combination (Table 5)
[29] = biofilm in formation (3 h), substance alone at MIC
[30] = biofilm in formation (3 h), substance alone at MIC, listed as thymol
[31] = biofilm in formation, sub-MIC concentrations alone or in combination (Table 5)
[32] = planktonic, 24-48 h, read-out: MIC
[33] = planktonic, 24 h, read-out: MIC

Structure (SMILES): Cc1ccc(C(C)C)c(O)c1 [Thymol, 2‐isopropyl‐5‐methylphenol]
- Percentage of biomass reduction [1, 25]: 79.7%
- Percentage of biomass reduction [1, 26]: 11.6%
- Percentage of biomass reduction [1, 27]: 82.7%
- Percentage of biomass reduction [2, 25]: 90%
- Percentage of biomass reduction [2, 26]: 22.6%
- Percentage of biomass reduction [2, 27]: 87%
- Percentage of biomass reduction [2, 28]: 31.3%
- Percentage of biomass reduction [3, 29]: 44.6%
- Percentage of biomass reduction [3, 30]: about 40%
- Percentage of biomass reduction [3, 31]: about 22%
- Percentage of biomass reduction [3, 26]: 22.5%
- Percentage of metabolic activity reduction [4, 29]: 90%
- Percentage of metabolic activity reduction [4, 27]: 9.6%
- Percentage of metabolic activity reduction [4, 28]: 11.4%
- MIC [5, 32]: ≥ 2000 µg/mL
- MFC ([5]; read-out: MFC): ≥ 2000 µg/mL
- Percentage of biomass reduction ([6]; biofilm in formation (3 h)): 37.1%
- Percentage of biomass reduction ([6]; biofilm in formation (3 h), listed as thymol): about 40%
- Percentage of biomass reduction ([6]; preformed biofilm (24 h)): 11.8%
- MIC [7, 33]: 125 µg/mL (≈ 832 µM)
- MBC ([7]; read-out: MBC): 250 µg/mL (≈ 1660 µM)
- MIC ([8]; E. coli MG1655, planktonic, 24 h, read-out: MIC): 125 µg/mL (≈ 832 µM)
- MBC ([8]; E. coli MG1655, read-out: MBC): 250 µg/mL (≈ 1660 µM)
- MIC [9, 33]: 250 µg/mL (≈ 1660 µM)
- MBC ([9]; read-out: MBC): 250 µg/mL (≈ 1660 µM)
- MIC ([10]; ATCC6538, S. aureus 6538, planktonic, 24 h, read-out: MIC): 250 µg/mL (≈ 1660 µM)
- MBC ([10]; ATCC6538, S. aureus 6538, read-out: MBC): 250 µg/mL (≈ 1660 µM)
- Percentage of metabolic activity reduction [11, 29]: 85.1%
- Percentage of metabolic activity reduction [11, 31]: about 22%
- Percentage of metabolic activity reduction [11, 26]: 24.0%
- Percentage of metabolic activity reduction [11, 27]: 84.1%
- Percentage of metabolic activity reduction ([11]; preformed biofilm (24 h), substance alone at MIC, listed as thymol): 80%
- Percentage of metabolic activity reduction [11, 28]: 9.0%
- Percentage of biomass reduction [12, 29]: no effect
- Percentage of biomass reduction [12, 27]: 18.5%
- Percentage of metabolic activity reduction [13, 25]: 90%
- Percentage of metabolic activity reduction [13, 26]: 12%
- Percentage of metabolic activity reduction [13, 27]: 90%
- Percentage of metabolic activity reduction [14, 25]: 96.3%
- Percentage of metabolic activity reduction [14, 27]: 97.5%
- Percentage of metabolic activity reduction [14, 28]: 17.2%
- Percentage of biomass reduction [15, 25]: 87.7%
- Percentage of biomass reduction [15, 27]: 87%
- Percentage of biomass reduction [16, 25]: 70%
- Percentage of biomass reduction [16, 27]: 69.8%
- Percentage of metabolic activity reduction [17]: 53.9%
- Percentage of metabolic activity reduction [18, 29]: 71.7%
- Percentage of metabolic activity reduction [18, 31]: 25%
- Percentage of metabolic activity reduction [18, 27]: 47%
- Percentage of metabolic activity reduction [18, 28]: 25.1%
- Percentage of metabolic activity reduction [19, 25]: 84.8%
- Percentage of metabolic activity reduction [19, 31]: ~50%
- Percentage of metabolic activity reduction [19, 26]: 51.3%
- Percentage of metabolic activity reduction [19, 27]: 74%
- Percentage of metabolic activity reduction [19, 28]: 22.4%
- Percentage of metabolic activity reduction [20, 25]: 77.9%
- Percentage of metabolic activity reduction [20, 31]: ~50%
- Percentage of metabolic activity reduction [20, 26]: 52%
- Percentage of metabolic activity reduction [20, 27]: 74%
- MIC [21, 32]: ≥ 2000 µg/mL
- MFC ([21]; read-out: MFC): ≥ 2000 µg/mL
- MIC [22, 32]: ≥ 2000 µg/mL
- MFC ([22]; read-out: MFC): ≥ 2000 µg/mL
- MIC [23, 32]: ≥ 2000 µg/mL
- MFC ([23]; read-out: MFC): ≥ 2000 µg/mL
- Percentage of biomass reduction [24, 29]: 52.1%
- Percentage of biomass reduction [24, 30]: about 40%
- Percentage of biomass reduction [24, 27]: 17.5%

Structure (SMILES): OC(Cn1cncn1)(Cn1cncn1)c1ccc(F)cc1F [FLC, fluconazole, reference compound]
- Percentage of biomass reduction [3, 31]: 30.6%
- Percentage of metabolic activity reduction [4, 31]: 27.1%
- Percentage of metabolic activity reduction [4, 28]: 5.3%
- Percentage of metabolic activity reduction [11, 31]: 25.1%
- Percentage of metabolic activity reduction [11, 28]: 6.9%
- Percentage of biomass reduction [12, 28]: 14%
- Percentage of metabolic activity reduction [18, 28]: 14%
- Percentage of biomass reduction [24, 31]: 20.5%

Structure (SMILES): CNC(C)C1CCC(N)C(OC2C(N)CC(N)C(OC3OCC(C)(O)C(NC)C3O)C2O)O1 (stereo not shown) [GM, gentamicin, reference compound]
- Percentage of biomass reduction [2, 31]: 57.6%
- Percentage of biomass reduction [2, 28]: 33.6%
- Percentage of metabolic activity reduction [13, 28]: 15.2%
- Percentage of metabolic activity reduction [14, 31]: 22.3%
- Percentage of metabolic activity reduction [14, 28]: 16%
- Percentage of biomass reduction [15, 31]: 48%
- Percentage of biomass reduction [15, 28]: 59.8%
- Percentage of biomass reduction [16, 31]: 66.7%
- Percentage of biomass reduction [16, 28]: 48.9%
- Percentage of metabolic activity reduction [19, 31]: 35.9%
- Percentage of metabolic activity reduction [19, 28]: 48.3%
- Percentage of metabolic activity reduction [20, 31]: 50%
